# Measurements reported in patent US8329904B2, “Azacyclic derivatives” (Hoffmann-La Roche Inc., priority 2009, dated 2012).
# Biological target: T1, human HSL (Homo sapiens, UniProt Q05469)
# T1 construct: overlapping PCR to generate a full length human HSL ORF with a 3′-His6 tag; His6 (C); made in house; host or cells: High 5 insect cells (baculovirus, pFast-BAC)
# T1 sequence (Q05469 1-1076): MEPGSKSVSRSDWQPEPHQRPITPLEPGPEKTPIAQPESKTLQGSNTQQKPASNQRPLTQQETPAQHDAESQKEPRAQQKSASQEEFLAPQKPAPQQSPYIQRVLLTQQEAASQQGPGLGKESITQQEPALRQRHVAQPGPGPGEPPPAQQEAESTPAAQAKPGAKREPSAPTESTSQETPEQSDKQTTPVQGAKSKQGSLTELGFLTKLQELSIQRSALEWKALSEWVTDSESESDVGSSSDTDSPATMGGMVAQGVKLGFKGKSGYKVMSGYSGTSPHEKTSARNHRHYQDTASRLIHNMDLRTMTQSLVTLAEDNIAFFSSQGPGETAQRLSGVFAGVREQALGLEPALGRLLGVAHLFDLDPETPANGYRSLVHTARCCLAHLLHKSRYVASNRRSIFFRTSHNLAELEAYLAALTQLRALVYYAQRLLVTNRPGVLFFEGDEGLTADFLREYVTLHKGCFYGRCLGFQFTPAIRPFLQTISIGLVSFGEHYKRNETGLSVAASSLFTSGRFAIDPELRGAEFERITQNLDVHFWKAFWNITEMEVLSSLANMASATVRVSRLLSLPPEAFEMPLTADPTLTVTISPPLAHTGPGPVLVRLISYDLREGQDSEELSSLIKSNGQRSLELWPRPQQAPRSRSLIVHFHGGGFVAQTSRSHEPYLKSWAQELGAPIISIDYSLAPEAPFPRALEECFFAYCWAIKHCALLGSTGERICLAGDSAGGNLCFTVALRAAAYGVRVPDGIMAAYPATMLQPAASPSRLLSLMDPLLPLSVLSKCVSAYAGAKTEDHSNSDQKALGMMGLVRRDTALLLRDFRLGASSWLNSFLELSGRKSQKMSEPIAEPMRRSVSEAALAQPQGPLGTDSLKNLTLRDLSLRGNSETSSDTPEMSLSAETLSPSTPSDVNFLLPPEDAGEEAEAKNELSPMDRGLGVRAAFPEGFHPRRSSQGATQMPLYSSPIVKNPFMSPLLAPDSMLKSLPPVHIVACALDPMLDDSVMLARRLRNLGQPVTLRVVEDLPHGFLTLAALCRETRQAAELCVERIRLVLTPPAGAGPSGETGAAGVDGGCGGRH
# Assay: Human Hormone-Sensitive Lipase (HSL) Enzyme Inhibition Assay
# Assay type: biochemical
# Details: colorimetric assay, 2,3-dimercapto-1-propanol tributyrate (DMPT) substrate, 37° C. for 20 minutes, absorbance at 405 nm; read-out: HSL hum IC50
# Procedure, shortened: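 Colorimetric thioester hydrolysis: compounds in DMSO series mixed with DMPT (1.5 mM) in MOPS pH 7.2 with BSA, then baculovirus-expressed His6-tagged full-length human HSL added, 37° C, 20 min. DTNB plus detergents added, 15 min room temperature, absorbance at 405 nm.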
row,IC50,SMILES
1,140 nM,"O=C1N(c2ccc(OC(F)(F)F)cc2)CCC12CCN(S(=O)(=O)c1ccc(C(F)(F)F)cc1Cl)CC2 [Example 70, 8-(2-Chloro-4-trifluoromethyl-benzenesulfonyl)-2-(4-trifluoromethoxy-phenyl)-2,8-diaza-spiro[4.5]decan-1-one]"
2,80 nM,"Cn1ccc(S(=O)(=O)N2CCC3(CCN(c4ccc(OC(F)(F)F)cc4)C3=O)CC2)n1 [Example 184, 8-(1-Methyl-1H-pyrazole-3-sulfonyl)-2-(4-trifluoromethoxy-phenyl)-2,8-diaza-spiro[4.5]decan-1-one]"
3,60 nM,"O=C1N(c2ccc(OC(F)(F)F)cc2)CCC12CCN(S(=O)(=O)Nc1ccccc1)CC2 [Example 286, 1-Oxo-2-(4-trifluoromethoxy-phenyl)-2,8-diaza-spiro[4.5]decane-8-sulfonic acid phenylamide]"
4,220 nM,"Cc1oncc1S(=O)(=O)N1CCC2(CCN(c3ccc(OC(F)(F)F)cc3)C2=O)CC1 [Example 185, 8-(5-Methyl-isoxazole-4-sulfonyl)-2-(4-trifluoromethoxy-phenyl)-2,8-diaza-spiro[4.5]decan-1-one]"
5,30 nM,"O=C1N(c2ccc(CC(F)(F)F)cc2)CCC12CCN(S(=O)(=O)c1ccccc1OC(F)(F)F)CC2 [Example 78, 2-[4-(2,2,2-Trifluoro-ethyl)-phenyl]-8-(2-trifluoromethoxy-benzenesulfonyl)-2,8-diaza-spiro[4.5]decan-1-one]"
6,70 nM,"CN(Cc1ccccc1)S(=O)(=O)N1CCC2(CCN(c3ccc(OC(F)(F)F)cc3)C2=O)CC1 [Example 296, 1-Oxo-2-(4-trifluoromethoxy-phenyl)-2,8-diaza-spiro[4.5]decane-8-sulfonic acid benzyl-methyl-amide]"
7,140 nM,"O=C1N(c2ccc(OC(F)(F)F)cc2)CCC12CCN(S(=O)(=O)c1cnccc1Cl)CC2 [Example 199, 8-(4-Chloro-pyridine-3-sulfonyl)-2-(4-trifluoromethoxy-phenyl)-2,8-diaza-spiro[4.5]decan-1-one]"
8,150 nM,"O=C1N(Cc2ccc(OC(F)(F)F)cc2)CCC12CCN(S(=O)(=O)c1ccccc1Cl)CC2 [Example 49, 8-(2-Chloro-benzenesulfonyl)-2-(4-trifluoromethoxy-benzyl)-2,8-diaza-spiro[4.5]decan-1-one]"

# The next lines start with the compound.
row,SMILES,IC50
1,"CC(C)(C)CCC(=O)N1CCC2(CC1)CCN(c1ccc(OC(F)(F)F)cc1)C2=O [Example 14, 8-(4,4-Dimethyl-pentanoyl)-2-(4-trifluoromethoxy-phenyl)-2,8-diaza-spiro[4.5]decan-1-one]",170 nM
2,"O=C1N(Cc2cccc(Cl)c2)CCC12CCN(S(=O)(=O)c1ccccc1Cl)CC2 [Example 235, 8-(2-Chloro-benzenesulfonyl)-2-(3-chloro-benzyl)-2,8-diaza-spiro[4.5]decan-1-one]",400 nM
3,"CCN(C(=O)N1CCC2(CC1)CCN(c1ccc(OC(F)(F)F)cc1)C2=O)c1ccc(Cl)cc1 [Example 309, 1-Oxo-2-(4-trifluoromethoxy-phenyl)-2,8-diaza-spiro[4.5]decane-8-carboxylic acid (4-chloro-phenyl)-ethyl-amide]",120 nM
4,"O=C1N(CCCc2ccccc2)CCC12CCN(S(=O)(=O)c1ccccc1Cl)CC2 [Example 241, 8-(2-Chloro-benzenesulfonyl)-2-(3-phenyl-propyl)-2,8-diaza-spiro[4.5]decan-1-one]",90 nM
5,"COCC(C)(C)c1ccc(N2CCC3(CCN(S(=O)(=O)c4ccccc4OC(F)(F)F)CC3)C2=O)cc1 [Example 110, 2-[4-(2-Methoxy-1,1-dimethyl-ethyl)-phenyl]-8-(2-trifluoromethoxy-benzenesulfonyl)-2,8-diaza-spiro[4.5]decan-1-one]",30 nM
6,"COCC(C)(C)c1ccc(N2CCC3(CCN(S(=O)(=O)CC(C)C)CC3)C2=O)cc1 [Example 108, 2-[4-(2-Methoxy-1,1-dimethyl-ethyl)-phenyl]-8-(2-methyl-propane-1-sulfonyl)-2,8-diaza-spiro[4.5]decan-1-one]",100 nM
7,"CCC(C)(O)CC(=O)N1CCC2(CC1)CCN(c1ccc(OC(F)(F)F)cc1)C2=O (centres unmarked) [Example 215, 8-(3-Hydroxy-3-methyl-pentanoyl)-2-(4-trifluoromethoxy-phenyl)-2,8-diaza-spiro[4.5]decan-1-one]",470 nM
8,"O=C1N(c2ccc(C3CC3)cc2)CCC12CCN(S(=O)(=O)c1ccc(F)cc1C(F)(F)F)CC2 [Example 72, 2-(4-Cyclopropyl-phenyl)-8-(4-fluoro-2-trifluoromethyl-benzenesulfonyl)-2,8-diaza-spiro[4.5]decan-1-one]",110 nM
9,"CCc1ccc(N2CCC3(CCN(S(=O)(=O)c4ccccc4I)CC3)C2=O)cc1 [Example 74, 2-(4-Ethyl-phenyl)-8-(2-iodo-benzenesulfonyl)-2,8-diaza-spiro[4.5]decan-1-one]",200 nM
10,"CCc1ccc(N2CCC3(CCN(S(=O)(=O)CC(C)(C)C)CC3)C2=O)cc1 [Example 32, 8-(2,2-Dimethyl-propane-1-sulfonyl)-2-(4-ethyl-phenyl)-2,8-diaza-spiro[4.5]decan-1-one]",80 nM
11,"CC(C)N(C)C(=O)c1ccc(N2CCC3(CCN(S(=O)(=O)c4ccccc4Cl)CC3)C2=O)cc1 [Example 161, 4-[8-(2-Chloro-benzenesulfonyl)-1-oxo-2,8-diaza-spiro[4.5]dec-2-yl]-N-isopropyl-N-methyl-benzamide]",380 nM
12,"CC(C)CS(=O)(=O)N1CCC2(CCN(c3ccc(C(C)(O)C(F)(F)F)cc3)C2=O)CC1 (centres unmarked) [Example 168, 8-(isobutylsulfonyl)-2-(4-(1,1,1-trifluoro-2-hydroxypropan-2-yl)phenyl)-2,8-diazaspiro[4.5]decan-1-one]",130 nM
13,"CC(Cc1ccc(F)cc1)N1CCC2(CCN(S(=O)(=O)c3ccccc3Cl)CC2)C1=O (centres unmarked) [Example 249, 8-(2-Chloro-benzenesulfonyl)-2-[2-(4-fluoro-phenyl)-1-methyl-ethyl]-2,8-diaza-spiro[4.5]decan-1-one]",460 nM
14,"CCn1ncc2cc(N3CCC4(CCN(S(=O)(=O)c5ccccc5Cl)CC4)C3=O)ccc21 [Example 126, 8-(2-Chloro-benzenesulfonyl)-2-(1-ethyl-1H-indazol-5-yl)-2,8-diaza-spiro[4.5]decan-1-one]",30 nM
15,"CC(C)CS(=O)(=O)N1CCC2(CCN(c3ccc(C4CC4)cc3)C2=O)CC1 [Example 65, 2-(4-Cyclopropyl-phenyl)-8-(2-methyl-propane-1-sulfonyl)-2,8-diaza-spiro[4.5]decan-1-one]",100 nM
16,"CN(C(=O)N1CCC2(CC1)CCN(c1ccc(OC(F)(F)F)cc1)C2=O)c1cccc(F)c1 [Example 280, 1-Oxo-2-(4-trifluoromethoxy-phenyl)-2,8-diaza-spiro[4.5]decane-8-carboxylic acid (3-fluoro-phenyl)-methyl-amide]",90 nM
17,"O=C(COC1CCCC1)N1CCC2(CC1)CCN(c1ccc(OC(F)(F)F)cc1)C2=O [Example 226, 8-(2-Cyclopentyloxy-acetyl)-2-(4-trifluoromethoxy-phenyl)-2,8-diaza-spiro[4.5]decan-1-one]",50 nM
18,"CC(C)CN(C)C(=O)N1CCC2(CC1)CCN(c1ccc(C3CC3)cc1)C2=O [Example 313, 2-(4-Cyclopropyl-phenyl)-1-oxo-2,8-diaza-spiro[4.5]decane-8-carboxylic acid isobutyl-methyl-amide]",90 nM
